10 molecules from PubChem BioAssay (NCI) can be followed below.

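Each compound was tested at five concentrations against cells in 96-well plates for 48 hours. The concentration for 50% growth inhibition is given as GI50. The concentration for full growth arrest is given as TGI.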

Test systems include SK-MEL-2 melanoma; HT29 colon; NCI-H23 lung; TK-10 renal; A498 renal; UACC-257 melanoma; OVCAR-8 ovarian; SW-620 colon; SK-MEL-5 melanoma; IGROV1 ovarian.
What all share (assay): NCI-60 cell line screen, 48 h

For the molecule `CCOC(=O)C#Cc1c(CC(=O)OCC)nnn1[C@H]1O[C@@H](CO)[C@@H]2OC(C)(C)O[C@@H]21`, the GI50 in the assay with SK-MEL-2 melanoma is 18.4 µM; in the assay on HT29 colon, 2.13 µM; in the assay with NCI-H23 lung, 13.6 µM; in the assay on TK-10 renal it was 1.76 µM; with A498 renal it was 17.7 µM; in the assay on UACC-257 melanoma, 4.47 µM. Also, the GI50 in the assay on OVCAR-8 ovarian is 5.48 µM; in the assay on SW-620 colon, 1880 nM; with SK-MEL-5 melanoma it was 15 µM; in the assay with IGROV1 ovarian, 16100 nM. For the same molecule, the TGI in the assay on SK-MEL-2 melanoma stood at 34.8 µM; with HT29 colon, 4.3 µM; in the assay with NCI-H23 lung, 30.5 µM; in the assay on TK-10 renal, 3.39 µM; with A498 renal, 31.5 µM; with UACC-257 melanoma it was 12.7 µM. Besides, the TGI with OVCAR-8 ovarian was 18.2 µM; in the assay on SW-620 colon, 3.78 µM; in the assay on SK-MEL-5 melanoma, 28.4 µM; in the assay with IGROV1 ovarian, 36.6 µM.

As to `Cc1ccc(C2=C(c3ccccc3)C(Br)(c3ccccc3)C(c3ccccc3)=C2c2ccc(C)cc2)cc1`, the TGI in the assay on SK-MEL-2 melanoma, with HT29 colon, with NCI-H23 lung, with TK-10 renal, with A498 renal and in the assay on UACC-257 melanoma was above 100 µM each time. Besides, the TGI with OVCAR-8 ovarian, with SW-620 colon, in the assay on SK-MEL-5 melanoma and in the assay on IGROV1 ovarian was above 100 µM in each case.

As for `CC12CC3CC(C1)CC(N=[N+]=[N-])(C3)C2`, the TGI with SK-MEL-2 melanoma, in the assay with HT29 colon, in the assay on NCI-H23 lung, with TK-10 renal, in the assay on A498 renal and in the assay with UACC-257 melanoma was above 100 µM throughout. Besides, the TGI with OVCAR-8 ovarian, with SW-620 colon, in the assay on SK-MEL-5 melanoma and in the assay on IGROV1 ovarian was above 100 µM throughout.

As for `Cc1nn(-c2nc3ccccc3[nH]2)c2c1C(c1ccc3c(c1)OCO3)CC(=O)N2` (stereo not given), the GI50 is 2.82 µM in the assay with SK-MEL-2 melanoma; 3.01 µM in the assay on HT29 colon; 2.13 µM with NCI-H23 lung; 3.14 µM in the assay on TK-10 renal; 1.61 µM in the assay with A498 renal; 2.41 µM in the assay on UACC-257 melanoma. Also, the GI50 is 3.51 µM in the assay on OVCAR-8 ovarian, 2860 nM with SW-620 colon, 1.88 µM in the assay with SK-MEL-5 melanoma and 2360 nM in the assay on IGROV1 ovarian. The TGI in the assay on SK-MEL-2 melanoma is 6.96 µM; in the assay with HT29 colon it was above 23.6 µM; in the assay on NCI-H23 lung, 4.72 µM; in the assay with TK-10 renal, above 25.8 µM; with A498 renal, 4.42 µM; in the assay with UACC-257 melanoma it was 6.96 µM. Moreover, the TGI was above 100 µM with OVCAR-8 ovarian, 9.63 µM with SW-620 colon, 3.76 µM in the assay with SK-MEL-5 melanoma and 4.57 µM with IGROV1 ovarian.

Consider `CC(C)(c1ccc(OC#N)cc1)c1ccc(OC#N)cc1`, for which the TGI in the assay on SK-MEL-2 melanoma, in the assay with HT29 colon, in the assay on NCI-H23 lung, in the assay on TK-10 renal, in the assay with A498 renal and in the assay on UACC-257 melanoma was above 100 µM each time. Moreover, the TGI in the assay with OVCAR-8 ovarian, with SW-620 colon, in the assay on SK-MEL-5 melanoma and in the assay with IGROV1 ovarian was above 100 µM throughout.

On to `COc1cc2cccc(NC(=O)c3cc(OC)c(OC)c(OC)c3Br)c2cc1OC`, for which the TGI in the assay on SK-MEL-2 melanoma was 49 µM; in the assay on HT29 colon it was 71.9 µM; in the assay with NCI-H23 lung, 34.4 µM; in the assay on TK-10 renal, 92.6 µM; in the assay on A498 renal, above 100 µM; in the assay with UACC-257 melanoma it was 16.7 µM. Besides, the TGI in the assay on OVCAR-8 ovarian turned out to be 85.4 µM; with SW-620 colon, 71 µM; with SK-MEL-5 melanoma, 10.6 µM; in the assay on IGROV1 ovarian it was 44.6 µM.

For `c1ccc(SC(CCCCOC2CCCCO2)Sc2ccccc2)cc1` (stereo not given), the TGI in the assay with SK-MEL-2 melanoma, in the assay with HT29 colon, with NCI-H23 lung, in the assay on TK-10 renal, with A498 renal and in the assay on UACC-257 melanoma was above 100 µM each time. Further, the TGI with OVCAR-8 ovarian, in the assay on SW-620 colon, with SK-MEL-5 melanoma and in the assay on IGROV1 ovarian was above 100 µM in each case.

Turning to `COc1ccc2c(c1)CC1c3c(cc4c(c3-2)OCO4)CCN1C` (stereo not given), the TGI is 72.3 µM in the assay on SK-MEL-2 melanoma; above 100 µM with HT29 colon; 73.9 µM in the assay with NCI-H23 lung; 71.3 µM in the assay on TK-10 renal; 31.7 µM with A498 renal; 57.5 µM in the assay with UACC-257 melanoma. Moreover, the TGI is 70.4 µM with OVCAR-8 ovarian, 59.8 µM in the assay with SW-620 colon, 30.6 µM in the assay with SK-MEL-5 melanoma and 85.8 µM in the assay with IGROV1 ovarian.

Turning to `N#Cc1nc2cc(F)c(F)cc2nc1-c1ccc(Cl)cc1`, the GI50 in the assay on SK-MEL-2 melanoma is 8.41 µM; with HT29 colon it was 7.8 µM; in the assay on NCI-H23 lung it was 7.92 µM; with TK-10 renal it was 22.4 µM; with A498 renal, 82 µM; with UACC-257 melanoma, 22.1 µM. Besides, the GI50 in the assay on OVCAR-8 ovarian was 2.09 µM; in the assay on SW-620 colon it was 16000 nM; with SK-MEL-5 melanoma it was 14.4 µM; in the assay on IGROV1 ovarian, 673 nM. For the same molecule, the TGI is 25.5 µM in the assay with SK-MEL-2 melanoma; above 100 µM in the assay with HT29 colon; 33.9 µM in the assay on NCI-H23 lung; 67.3 µM in the assay on TK-10 renal; above 100 µM in the assay on A498 renal; above 58.3 µM in the assay with UACC-257 melanoma. Besides, the TGI in the assay on OVCAR-8 ovarian was found to be 4.76 µM; in the assay on SW-620 colon, 50.1 µM; with SK-MEL-5 melanoma it was 40.6 µM; in the assay with IGROV1 ovarian, 2.31 µM.

For `O=C1CCCC1NC(=O)C(F)(F)F` (stereo not given), the TGI with SK-MEL-2 melanoma, with HT29 colon, in the assay with NCI-H23 lung, in the assay with TK-10 renal, in the assay with A498 renal and in the assay with UACC-257 melanoma was above 100 µM throughout. Further, the TGI in the assay with OVCAR-8 ovarian, in the assay on SW-620 colon, in the assay on SK-MEL-5 melanoma and in the assay with IGROV1 ovarian was above 100 µM in each case.
